Assay results: patent US7785567B2, “Growth hormone-releasing peptides in the treatment or prevention of atherosclerosis and hypercholesterolemia” (Valorisation-Recherche, Société en Commandite, priority 2002, dated 2010)
Where a SMILES comes first, the peptide text is derived from it. Primed or numbered codes have the meaning given here. Where no end group is shown, it is not given here. [ ]: non-standard residue; d: D form. dTrp(2-Me) = Cc1[nH]c2ccccc2c1C[C@@H](N)C(=O)O; Haic′ = not defined here

Assays:
CD36 = test: Western blot of oxLDL-elicited peritoneal macrophages from treated ApoE-null mice; assay type: in vivo, mouse; settings: HFHC diet, HEX 100 μg/kg or EP80317 300 μg/kg per day, 12 weeks, normalised to β-actin, vehicle set at 100%
Text: GHRPs modulate CD36 and ABCA1 protein levels in peritoneal macrophages from ApoE-null mice fed a HFHC diet for 12 weeks. […] Relative protein levels for A, CD36 and B, ABCA1 are normalised to β-actin and expressed as % of change compared to vehicle (0.9% NaCl)-treated controls set at 100%. Data represent the mean of two independent experiments.

ApoE-null mice [1] = test: Fatty streak lesion area in aortas, en face oil red-O staining, 12 weeks treatment (Example 1); assay type: in vivo, mouse; settings: HFHC diet, HEX 100 μg/kg per day or EP80317 300 μg/kg per day s.c. for 12 weeks from 6 weeks old, vs 0.9% NaCl
Description: GHRPs prevent fatty streak formation in ApoE deficient mice fed a HFHC diet for 12 weeks (from 6 weeks old). Effects of HEX (100 μg/kg per day) and of EP80317 (300 μg/kg per day), administered subcutaneously for 12 weeks (from 6 weeks old).
To determine whether GHRPs reduce atherosclerosis development, we have used the ApoE deficient mice strain and their C57BL/6 control littermates to assess the effects of prolonged (12 weeks) GHRPs treatment on fatty streak formation in mice fed a an enriched lipid diet. The surface area of oil red-O staining aortas of mice has been used as an index of plaque development and changes in the plasma levels of lipids as an index of hypolipemic effect. […]
(§1) The animals were housed in cages (less than 5 per cage) and fed a normal chow diet and water ad libitum. […] Four days before sacrifice, 6 mice from Groups 1 to 3 were injected i.p. with oxLDL (minimally oxidized, 3-6 mmol/mg protein, as determined by Thiobarbituric Acid Reactive Substances (TBARS) assay). […] The entire aorta from the heart, extending 5-10 mm after bifurcation of the iliac arteries and including the subclavian right and left common carotid arteries, was removed, dissected, and evaluated for lesion development by en face oil red-O staining and morphometry of scanned images using the software Scion Image (Scion Corp., Fredrick, Md.). […]

[2] = system: human monocytic THP-1 cells; test: Lipid accumulation in PMA-differentiated THP-1 macrophages (Oil Red O extraction, 510 nm); assay type: cell-based; settings: 10 μM for 24 hrs
Description: A: GHRPs reduce lipid accumulation in differentiated human macrophages. To induce lipid accumulation, human monocytic THP-1 cells were differentiated to macrophages with 5 ng/mL PMA for 48 hrs and then treated as indicated for 24 hrs with 10 μM HEX or EP80317 in the presence of phorbol myristate acetate (PMA). Non-differentiated cells (no PMA) were also analysed. Lipid accumulation was quantified by photometry at 510 nm following extraction of Oil Red O from stained cells. Lipid staining was reduced by 35% and 28% in macrophages treated with HEX and EP80317, respectively, compared to untreated cells.

ApoE-null mice [3] = test: Plasma lipid analysis (enzymatic kits) after 12 weeks treatment; assay type: in vivo, mouse; settings: HFHC diet; for Increase in HDL cholesterol compared to controls: HEX 100 μg/kg or EP80317 300 μg/kg per day for 12 weeks, tended to be increased
Description: A: Effects of 12 weeks treatment (from 6 weeks old) with 0.9% NaCl (open bar), HEX, 100 μg/kg per day (solid bar) or EP80317 300 μg/kg per day (cross-hatched bar) on total plasma cholesterol in mice fed a HFHC or a normal diet.
The animals were housed in cages (less than 5 per cage) and fed a normal chow diet and water ad libitum. At 6 weeks of age, male C57BL/6, CD36 and ApoE-null mice were assigned to 1 of 3 groups (n=12 mice per group): Group 1 received daily injections of 0.9% NaCl (1 μL/g); Group 2, HEX (100 μg/kg, 1 μL/g), and Group 3, EP80317 (300 μg/kg, 1 μL/g). All three groups of mice were fed a HFHC diet (purchased from Research Diet Inc. (D.12108)) from 6 weeks of age. Daily s.c. treatment with HEX, EP80317 or vehicle was begun at 6 weeks old and continued for 12 weeks. Four days before sacrifice, 6 mice from Groups 1 to 3 were injected i.p. with oxLDL (minimally oxidized, 3-6 mmol/mg protein, as determined by Thiobarbituric Acid Reactive Substances (TBARS) assay). At 18 weeks old, mice were fasted overnight, anaesthetised with ketamine-xylazine (90:10 mg/kg) two hours after the s.c. administration of the morning dose of the drug under study. Blood (1 mL) was taken from the heart and put into EDTA pre-coated microcontainers (BD, Franklin Lakes, N.J., USA). Mice were killed, the hearts were perfused with 20 mL 0.9% NaCl. The peritoneal cavity was washed with 3 mL of heparinised saline (10 units/mL) in mice injected i.p. with oxLDL. A hemacytometer and stained cytospin preparation (Diff Quick stain, Dade Diagnostics of P.R. Inc., Aguada, PR) were used to determine the total and differential leukocyte numbers, respectively, for the peritoneal cavity lavage fluid. The entire aorta from the heart, extending 5-10 mm after bifurcation of the iliac arteries and including the subclavian right and left common carotid arteries, was removed, dissected, and evaluated for lesion development by en face oil red-O staining and morphometry of scanned images using the software Scion Image (Scion Corp., Fredrick, Md.). The animal study protocol was reviewed and approved by the institutional Animal Ethics Committee of the Université de Montréal and conducted in accordance with the Canadian Council on Animal Care guidelines for use of experimental animals.
Total plasma cholesterol, triacylglycerol and HDL cholesterol were determined using enzymatic kits (Sigma Chemicals). Appropriate standards and controls were included in each assay.

ApoE-null mice [4] = test: Fatty streak lesion area in aortas, treatment begun after start of HFHC diet (Example 2); assay type: in vivo, mouse; settings: HFHC diet from 6 weeks
Description: The effects of EP80317 (300 μg/kg per day) administered subcutaneously for 8 weeks (from 10 to 18 weeks of age), 6 weeks (from 12 to 18 weeks of age) and 4 weeks (from 14 to 18 weeks of age) were documented, as well as the effect of hexarelin (100 μg/kg per day) given for 4 weeks (from 14 to 18 weeks of age).
To determine whether GHRPs are able to delay the development or to modulate the regression of fatty streaks, we have used the ApoE-deficient mice to assess the effect of the duration of the treatment with GHRPs on the progression of fatty streaks after the initiation of atherosclerotic lesions induced by a HFHC diet starting at 6 weeks of age.
Male ApoE-null mice (n=35) were housed in cages (less than 5 per cage). After weaning until 4 weeks of age, the mice were fed a normal chow diet and water ad libitum. Starting at 6 weeks of age, the mice were fed a HFHC diet (purchased from Research Diet Inc. (D.12108)). The animals were segregated in 3 groups. • Group 1 (n=10) was subdivided into 2 subgroups, receiving, from 10 to 18 weeks of age (i.e. for 8 weeks), daily injections of EP80317 (300 μg/kg) (n=5) or 0.9% NaCl (n=5). • Group 2 (n=10) was subdivided into 2 subgroups receiving, from 12 to 18 weeks of age (i.e. for 6 weeks), daily injections of EP80317 (300 μg/kg/per day) (n=5) or 0.9% NaCl (n=5). • Group 3 (n=15) was subdivided into 3 subgroups, receiving, from 14 to 18 weeks of age (i.e. for 4 weeks), EP80317 (300 μg/kg/per day) (n=5), or hexarelin (100 μg/kg per day) (n=5) or 0.9% NaCl (n=5).
Mice were euthanised at 18 weeks of age. The entire aortas from the heart extending 5-10 mm after bifurcation of the iliac arteries and including the subclavian right and left common carotids were removed, dissected and evaluated for lesion development by en face oil red-O staining and morphometry of scanned images using the software Scion image (Scion Corp., Frederick, Md.).

CD36-null mice = test: oxLDL-induced accumulation of macrophages in the peritoneal cavity; assay type: in vivo, mouse; settings: HFHC diet, EP80317 300 μg/kg per day, 12 weeks
Description: (§2) A: Effects of 12 weeks treatment (from 6 weeks old) with 0.9% NaCl (open bar), HEX, 100 μg/kg per day (solid bar) or EP80317, 300 μg/kg per day (cross-hatched bar) on oxLDL (250 μg i.p., <6 nmol MDA/mg lipoprotein)-induced accumulation of macrophages in the peritoneal cavity in wild type C57BL/6 mice and CD36-null mice fed a HFHC diet. Peritoneal macrophage accumulation in wild type mice tended to be reduced by 37%.
as §1, with “libitum. At 6 weeks of age, male C57BL/6, CD36 and ApoE-null mice were assigned to 1 of 3 groups (n=12 mice per group): Group 1 received daily injections of 0.9% NaCl (1 μL/g); Group 2, HEX (100 μg/kg, 1 μL/g), and Group 3, EP80317 (300 μg/kg, 1 μL/g).” for “libitum.”

wild type C57BL/6 mice = test: as above; assay type: in vivo, mouse; settings: HFHC diet, EP80317 300 μg/kg per day, 12 weeks, oxLDL 250 μg i.p.
Description: as §2
as §1, with “libitum. At 6 weeks of age, male C57BL/6, CD36 and ApoE-null mice were assigned to 1 of 3 groups (n=12 mice per group): Group 1 received daily injections of 0.9% NaCl (1 μL/g); Group 2, HEX (100 μg/kg, 1 μL/g), and Group 3, EP80317 (300 μg/kg, 1 μL/g).” for “libitum.”

[5] = cited from earlier work
ApoE-null mice [6] = test: oxLDL-induced accumulation of macrophages in the peritoneal cavity; assay type: in vivo, mouse; settings: normal chow diet, EP80317 300 μg/kg per day, 12 weeks
Description: B: Effects of 12 weeks treatment (from 6 weeks old) with 0.9% NaCl (open bar), HEX, 100 μg/kg per day (solid bar) or EP80317, 300 μg/kg per day (cross-hatched bar) on oxLDL-induced accumulation of macrophages in the peritoneal cavity in ApoE-null mice fed either a HFHC or a normal diet. Peritoneal macrophage accumulation was reduced by 39% in mice fed a normal diet.
as §1, with “libitum. At 6 weeks of age, male C57BL/6, CD36 and ApoE-null mice were assigned to 1 of 3 groups (n=12 mice per group): Group 1 received daily injections of 0.9% NaCl (1 μL/g); Group 2, HEX (100 μg/kg, 1 μL/g), and Group 3, EP80317 (300 μg/kg, 1 μL/g). All three groups of mice were fed a HFHC diet (purchased from Research Diet Inc. (D.12108)) from 6 weeks of age.” for “libitum.”

[7] = system: peritoneal macrophages isolated from ApoE-null mice; test: Lipid accumulation in peritoneal macrophages isolated from treated ApoE-null mice (Oil Red O extraction); assay type: in vivo, mouse; settings: HFHC diet from 13 to 18 weeks old, EP80317 300 μg/kg s.c. from 13 to 18 weeks old, vs not treated
Description: B: GHRPs reduced lipid accumulation in peritoneal macrophages isolated from ApoE-null mice fed a HFHC diet from 13 to 18 weeks old. EP80317 (300 μg/kg) s.c. has been administered from 13 to 18 weeks old. Lipid staining (assessed by Oil Red O extraction) was reduced by 57% (compared to peritoneal macrophages isolated from ApoE-null mice fed a HFHC diet from 13 weeks old, but not treated with EP80317).

[8] = treatment for 4 weeks (14 to 18 weeks of age), EP80317 300 μg/kg or hexarelin 100 μg/kg per day, not significant
[9] = EP80317 300 μg/kg daily for 12 weeks from 6 weeks old

| Compound | CD36 protein expression in peritoneal macrophages, % of controls (CD36) | Reduction of lesion area (% of total aorta area) compared to controls (ApoE-null mice [1]) [%] | Reduction of lipid staining compared to untreated cells [2] [%] | Increase in HDL cholesterol compared to controls (ApoE-null mice [3]) [%] | Reduction of lesion area (% total aorta area) compared to controls (ApoE-null mice [4]; [8]) [%] | oxLDL-induced peritoneal macrophage accumulation (CD36-null mice) | Reduction of oxLDL-induced peritoneal macrophage accumulation (wild type C57BL/6 mice) [%] | GH-secreting activity in vivo [5] | Reduction of oxLDL-induced peritoneal macrophage accumulation (ApoE-null mice [6]) [%] | Reduction of lipid staining in peritoneal macrophages (Oil Red O extraction) [7] [%] | Decrease in non-HDL plasma cholesterol compared to controls (ApoE-null mice [3]; [9]) [%] | Decrease in total plasma cholesterol compared to controls (ApoE-null mice [3]; [9]) [%] | Reduction of lesion area (% total aorta area) compared to controls (ApoE-null mice [4]; treatment for 6 weeks (12 to 18 weeks of age), EP80317 300 μg/kg per day s.c.) [%] | Reduction of lesion area (% total aorta area) compared to controls (ApoE-null mice [4]; treatment for 8 weeks (10 to 18 weeks of age), EP80317 300 μg/kg per day s.c.) [%] |
| --- | --- | --- | --- | --- | --- | --- | --- | --- | --- | --- | --- | --- | --- | --- |
| Cc1[nH]c2ccccc2c1C[C@@H](NC(=O)[C@@H](N)Cc1cnc[nH]1)C(=O)N[C@@H](C)C(=O)N[C@@H](Cc1c[nH]c2ccccc12)C(=O)N[C@H](Cc1ccccc1)C(=O)N[C@@H](CCCCN)C(N)=O [HEX, His-(D) -(Me)Trp-Ala-Trp-(D)-Phe-Lys-NH2, reference compound] (H-H[dTrp(2-Me)]AW[dF]K-NH2) | 57 % of controls | 28 | 35 | 65 | 8 | – | – | – | – | – | – | – | – | – |
| Haic-(D) -(Me)Trp-(D)-Lys-Trp-(D)-Phe-Lys-NH2 ([Haic′]W[dK]W[dF]K-NH2; not fully specified (residue 2)) [EP80317] | 27 % of controls | 51 | 28 | 73 | 36 | did not modulate macrophage accumulation | 37 | devoid of GH-secreting activity in vivo | 39 | 57 | 31 | 30 | 31.3 | 39.2 |
